Measurements: ChEMBL document CHEMBL1142675, “CH...O and CH...N hydrogen bonds in ligand design: a novel quinazolin-4-ylthiazol-2-ylamine protein kinase inhibitor” (J Med Chem, 2005)

Molecular target: Glycogen synthase kinase-3 (Homo sapiens, UniProt P49840+P49841)
Assay: Inhibition of Glycogen synthase kinase-3
Assay type: protein assay

For `Cc1cc(Nc2nc(-c3ccccc3)nc3ccccc23)no1`, the Ki was > 2000 nM.

Point of comparison: `Cc1cc(Nc2nc(-c3ccccc3)nc3ccccc23)n[nH]1`, Ki 24 nM. Against it:
- Cc1cc(Nc2cc(-c3ccccc3)nc3ccccc23)[nH]n1 — 100-fold higher, 2500 nM
- Cc1n[nH]c(Nc2nc(-c3ccccc3)nc3ccccc23)n1 — 960-fold higher, 23000 nM
- Cc1cnc(Nc2nc(-c3ccccc3)nc3ccccc23)s1 — 6.2-fold higher, 150 nM
- c1ccc(-c2nc(Nc3cc[nH]n3)c3ccccc3n2)cc1 — 4.6-fold higher, 110 nM
- c1ccc(-c2nc(Nc3nc[nH]n3)c3ccccc3n2)cc1 — 10-fold higher, 250 nM
